Read-outs that look alike come from different tables or passages of the source.

Consider 22 molecules from doi:10.1101/2024.08.19.608619, “Discovery of potent SARS-CoV-2 nsp3 macrodomain inhibitors uncovers lack of translation to cellular antiviral response” (bioRxiv, 2024).

Experiment [1] deals with T1, SARS-CoV-2 nsp3-mac1 (Severe acute respiratory syndrome coronavirus 2, UniProt P0DTD1). In words: biochemical. It is filed as biochemical. To be noted: SARS-CoV-2 nsp3 macrodomain TR-FRET single point, concentration 50.0 uM.
Experiment [2] deals with T1, SARS-CoV-2 nsp3-mac1. In words: biochemical. Further details: SARS-CoV-2 nsp3 macrodomain TR-FRET single point, per cent inhibition, n=2.

In the case of `O=C(Nc1cnc2[nH]ncc2c1)c1ccc(Oc2cccc(Br)c2)nc1` [ASAP-0000023], the perc_inhibition_mean at SARS-CoV-2 nsp3-mac1 [1] is -0.183%. Besides, the inhibition at 50 µM on SARS-CoV-2 nsp3-mac1 [2] (read-out: perc_inhibition_mean, batch_name=ASAP-0000023-001) was -0.183%.

For `C#Cc1cccc(NC(=O)CN(C)c2ncnc3[nH]ccc23)c1` [ASAP-0000024], at SARS-CoV-2 nsp3-mac1 [1], the perc_inhibition_mean turned out to be 4.398%. On SARS-CoV-2 nsp3-mac1 [2] (read-out: perc_inhibition_mean, batch_name=ASAP-0000024-001), the inhibition at 50 µM is 4.4%.

In the case of `CN(CCOc1ccccc1)c1ncnc2[nH]ccc12` [ASAP-0000026], on SARS-CoV-2 nsp3-mac1 [1], the perc_inhibition_mean is listed as -2.258%. On SARS-CoV-2 nsp3-mac1 [2] (read-out: perc_inhibition_mean, batch_name=ASAP-0000026-001), the inhibition at 50 µM is -2.26%.

`Cc1[nH]c2ncnc(NC(=O)c3ncn(-c4ccccc4)n3)c2c1C` [ASAP-0000027]: the perc_inhibition_mean on SARS-CoV-2 nsp3-mac1 [1] amounted to 7.104%. Further, the inhibition at 50 µM at SARS-CoV-2 nsp3-mac1 [2] (read-out: perc_inhibition_mean, batch_name=ASAP-0000027-001) is 7.1%.

Regarding `COc1cccc2cc(CNc3cnc4[nH]ncc4c3)oc12` [ASAP-0000028], the perc_inhibition_mean at SARS-CoV-2 nsp3-mac1 [1] is given as -4.293%. For the same molecule, the inhibition at 50 µM at SARS-CoV-2 nsp3-mac1 [2] (read-out: perc_inhibition_mean, batch_name=ASAP-0000028-001) was -4.29%.

As to `COc1cc(CNc2cnc3[nH]ncc3c2)ccc1Cl` [ASAP-0000029], the perc_inhibition_mean on SARS-CoV-2 nsp3-mac1 [1] was -2.794%. Further, the inhibition at 50 µM on SARS-CoV-2 nsp3-mac1 [2] (read-out: perc_inhibition_mean, batch_name=ASAP-0000029-001) is -2.79%.

On to `FC(F)(F)c1ccccc1[C@@H]1CN(c2ncnc3[nH]ccc23)CCO1` [ASAP-0000030], for which the perc_inhibition_mean at SARS-CoV-2 nsp3-mac1 [1] was -5.311%. In addition, the inhibition at 50 µM on SARS-CoV-2 nsp3-mac1 [2] (read-out: perc_inhibition_mean, batch_name=ASAP-0000030-001) is -5.31%.

In the case of `O=C(Cc1ccc(F)cc1)Nc1ccc2[nH]ncc2c1` [ASAP-0000032], at SARS-CoV-2 nsp3-mac1 [1], the perc_inhibition_mean came to 1.139%. Further, the inhibition at 50 µM at SARS-CoV-2 nsp3-mac1 [2] (read-out: perc_inhibition_mean, batch_name=ASAP-0000032-001) turned out to be 1.14%.

`CC(C)(c1noc(-c2ncnc3[nH]ccc23)n1)S(C)(=O)=O` [ASAP-0000033]: the perc_inhibition_mean at SARS-CoV-2 nsp3-mac1 [1] is reported as -0.756%. Also, at SARS-CoV-2 nsp3-mac1 [2] (read-out: perc_inhibition_mean, batch_name=ASAP-0000033-001), the inhibition at 50 µM was -0.756%.

In the case of `O=C(CNc1ncnc2[nH]ccc12)N1CCc2ccccc21` [ASAP-0000034], the perc_inhibition_mean at SARS-CoV-2 nsp3-mac1 [1] is recorded as 1.193%. Moreover, the inhibition at 50 µM at SARS-CoV-2 nsp3-mac1 [2] (read-out: perc_inhibition_mean, batch_name=ASAP-0000034-001) turned out to be 1.19%.

Regarding `CN1CCOc2cccc(NC(=O)Nc3cnc4[nH]ncc4c3)c21` [ASAP-0000035], at SARS-CoV-2 nsp3-mac1 [1], the perc_inhibition_mean is listed as -6.537%. Further, the inhibition at 50 µM at SARS-CoV-2 nsp3-mac1 [2] (read-out: perc_inhibition_mean, batch_name=ASAP-0000035-001) was -6.54%.

With `c1ccc2sc(CNc3ncnc4[nH]ccc34)nc2c1` [ASAP-0000036], the perc_inhibition_mean at SARS-CoV-2 nsp3-mac1 [1] is reported as -0.671%. Besides, the inhibition at 50 µM on SARS-CoV-2 nsp3-mac1 [2] (read-out: perc_inhibition_mean, batch_name=ASAP-0000036-001) is -0.671%.

In the case of `O=C1CN(c2ccc(Nc3ncnc4[nH]ccc34)cn2)CCN1` [ASAP-0000037], the perc_inhibition_mean at SARS-CoV-2 nsp3-mac1 [1] is -16.793%. Moreover, the inhibition at 50 µM at SARS-CoV-2 nsp3-mac1 [2] (read-out: perc_inhibition_mean, batch_name=ASAP-0000037-001) was -16.8%.

In the case of `Cc1cccc2oc(CCNc3ncnc4[nH]ccc34)nc12` [ASAP-0000038], on SARS-CoV-2 nsp3-mac1 [1], the perc_inhibition_mean is listed as -3.259%. On SARS-CoV-2 nsp3-mac1 [2] (read-out: perc_inhibition_mean, batch_name=ASAP-0000038-001), the inhibition at 50 µM was -3.26%.

On to `O=C(OCC(Br)=C1CCOCC1)c1ncnc2[nH]ccc12` [ASAP-0000039], for which, on SARS-CoV-2 nsp3-mac1 [1], the perc_inhibition_mean was -5.359%. Further, at SARS-CoV-2 nsp3-mac1 [2] (read-out: perc_inhibition_mean, batch_name=ASAP-0000039-001), the inhibition at 50 µM is -5.36%.

As for `CS(=O)(=O)N1CC[C@@H](COC(=O)c2ncnc3[nH]ccc23)C1` [ASAP-0000040], the perc_inhibition_mean at SARS-CoV-2 nsp3-mac1 [1] stood at 0.187%. Also, the inhibition at 50 µM on SARS-CoV-2 nsp3-mac1 [2] (read-out: perc_inhibition_mean, batch_name=ASAP-0000040-001) is 0.187%.

Consider `Cc1nc(C)c(CC(=O)Nc2cnc3[nH]ncc3c2)c(=O)[nH]1` [ASAP-0000041], for which the perc_inhibition_mean at SARS-CoV-2 nsp3-mac1 [1] is reported as 4.825%. On SARS-CoV-2 nsp3-mac1 [2] (read-out: perc_inhibition_mean, batch_name=ASAP-0000041-001), the inhibition at 50 µM was found to be 4.83%.

In the case of `O=C(Cc1n[nH]c2c1CCCC2)Nc1cnc2[nH]ncc2c1` [ASAP-0000042], the perc_inhibition_mean at SARS-CoV-2 nsp3-mac1 [1] is given as -1.262%. Moreover, the inhibition at 50 µM on SARS-CoV-2 nsp3-mac1 [2] (read-out: perc_inhibition_mean, batch_name=ASAP-0000042-001) is -1.26%.

On to `Cc1noc([C@@H]2CCCN(c3ncnc4[nH]ccc34)C2)n1` [ASAP-0000043], for which, on SARS-CoV-2 nsp3-mac1 [1], the perc_inhibition_mean was determined as 1.916%. For the same molecule, the inhibition at 50 µM at SARS-CoV-2 nsp3-mac1 [2] (read-out: perc_inhibition_mean, batch_name=ASAP-0000043-001) is 1.92%.

Take `NC(=O)c1ccccc1NC(=O)c1ncnc2[nH]ccc12` [ASAP-0000044]: the perc_inhibition_mean on SARS-CoV-2 nsp3-mac1 [1] is -2.586%. In addition, on SARS-CoV-2 nsp3-mac1 [2] (read-out: perc_inhibition_mean, batch_name=ASAP-0000044-001), the inhibition at 50 µM was -2.59%.

On to `OC[C@@H]1CN(c2ncnc3nc[nH]c23)CCC1(F)F` [ASAP-0000045], for which, on SARS-CoV-2 nsp3-mac1 [1], the perc_inhibition_mean is listed as 1.75%. Besides, at SARS-CoV-2 nsp3-mac1 [2] (read-out: perc_inhibition_mean, batch_name=ASAP-0000045-001), the inhibition at 50 µM worked out at 1.75%.

Take `Cc1nc(Nc2cnn(CCO)c2)c2cc[nH]c2n1` [ASAP-0000046]: the perc_inhibition_mean on SARS-CoV-2 nsp3-mac1 [1] is listed as -6.147%. Further, at SARS-CoV-2 nsp3-mac1 [2] (read-out: perc_inhibition_mean, batch_name=ASAP-0000046-001), the inhibition at 50 µM was -6.15%.
